The values that follow are results of earlier work, collected in publication PMC10950972, “Relative bioavailability of fedratinib through various alternative oral administration methods in healthy adults” (Cancer Chemotherapy and Pharmacology, 2023).

Details of data set [1]: method as in PMID 34480861. To be noted: patients; compared with healthy adults and patients with rheumatoid arthritis; cited from earlier work.
Details of data set [2]: method as in PMID 15598479. To be noted: cited from earlier work.

For `CCS(=O)(=O)N1CC(CC#N)(n2cc(-c3ncnc4[nH]ccc34)cn2)C1` [baricitinib], the “PK after solution of crushed tablets via nasogastric tube vs PK previously reported” value in data set [1] is recorded as “consistent with PK results previously reported”.
With `COc1cc2ncnc(Nc3ccc(F)c(Cl)c3)c2cc1OCCCN1CCOCC1` [gefitinib], the “Differences in bioavailability and PK parameters, intact capsules vs nasogastric administration” value in data set [2] was “no clinically significant differences”.
